Measured values as given in patent US8383658B2, “Isoxazole based neuronal nicotinic receptor ligands and methods of use” (Abbott Laboratories, priority 2008, dated 2013).

What follows are compounds tested against T1, human α4β2 (Homo sapiens, UniProt P17787+P43681) (assay: Calcium flux assay (FLIPR), potentiation of submaximal agonist response in HEK 293 cells expressing α4β2). Details: α4β2 PAM; fluorescence response to submaximal nicotine considered as 100%.
T1 construct: expressed in transfected cells
Type: cell-based
Text: One manner to characterize α4β2 PAM activity is by characterization in clonal cell lines (for example, human embryonic kidney 293 cells) expressing the human neuronal nicotinic acetylcholine receptor subtype α4β2, particularly by use of Fluorescent Image Plate Reader technology. Effects on calcium flux or membrane potential changes can be assessed. Such assays have been reported and further details for carrying out the assays can be obtained in International Publication No. WO 2006/114400. Another method to identify and characterize allosteric modulator activity is by expressing the α4β2 subunits in Xenopus oocytes, and by measuring electrophysiological effects on ligand-evoked current responses as previously described in Curtis, L., et al., Molecular Pharmacology, 61: 127-135, 2002.
To determine the effectiveness of representative compounds of this invention as ligands for α4β2 PAM activity, the compounds of the invention can be evaluated according to the Calcium Flux Assay described below.
Human embryonic kidney (HEK) 293 cells stably expressing human α4β2 or α3β4 combinations are grown to confluency in 162 cm^2 tissue culture flasks in DMEM media supplemented with 10% FBS and 25 μg/ml zeocin and 200 μg/ml hygromycin B. Cells expressing rat or ferret subunits may also be used. For assessing α3* or α7* selectivity, IMR-32 cells may also be used. IMR-32 neuroblastoma cells (ATCC) are grown to confluency in 162 cm^2 tissue culture flasks in minimum essential media supplemented with 10% FBS and 1 mM sodium pyruvate, 1% non-essential amino acids and 1% antibiotic-antimycotic. For the calcium flux assay, c cells are then dissociated using cell dissociation buffer and 100-150 μl per well of 3.5×10^5 cells/ml cell suspension (˜50,000-100,000 cells/well) was plated into 96-well black plates (poly-D-lysine precoated) with clear bottom and maintained for 24-48 hours in a tissue culture incubator at 37° C. under an atmosphere of 5% CO2: 95% air. Other clonal cell lines or primary cell cultures that express endogenous α4* nicotinic receptors may also be used in this assay. Calcium flux was measured using calcium-3 assay kit (Molecular Devices, Sunnyvale, Calif.) or fluo-4 (Invitrogen). A stock solution of the dye was prepared by dissolving each vial supplied by the vendor in Hank's balanced salt solution buffer (HBSS) or 150 mM NMDG, 20 mM CaCl2 containing 10 mM HEPES. The stock solution was diluted 1:20 using the same buffer before use. The growth media was removed from the cells. The cells were loaded with 100 μl of the dye per well and incubated at room temperature for up to one hour for HEK 293 clonal stable cell lines or 30 minutes-45 minutes at 37° C. for IMR-32 cells. Fluorescence measurements were read simultaneously from all the wells by a Fluorometic Imaging Plate Reader (FLIPR) at an excitation wavelength of 480 nm and an emission wavelength of 520 nm. Baseline fluorescence was measured for the first 6 seconds at which 3× concentrations of modulator/test compounds were added to the cell plate at 50 μl and incubated for five minutes. The fluorescence intensity was captured every second for the first 1 minute followed by every 5 seconds for an additional 4 minutes. This procedure was followed by 50 μl of 4× concentration of agonist and readings were taken for a period of 3-5 minutes as described above.
The ability of test compounds to positively modulate the response (i.e., increase the response) induced by a submaximal concentration of agonist (EC20-30%) such as nicotine is measured. Potentiation is measured based on peak fluorescence responses by screening compounds at fixed concentrations or in a concentration-response manner to derive EC50 values. The concentration dependence of changes in fluorescence responses is fitted by nonlinear regression analysis (GraphPad Prism, San Diego, Calif.) to obtain EC50 values. The degree of potentiation and EC50 values of the test compounds are typically calculated. […]

T1 sequence (P43681 29-627 limits assumed): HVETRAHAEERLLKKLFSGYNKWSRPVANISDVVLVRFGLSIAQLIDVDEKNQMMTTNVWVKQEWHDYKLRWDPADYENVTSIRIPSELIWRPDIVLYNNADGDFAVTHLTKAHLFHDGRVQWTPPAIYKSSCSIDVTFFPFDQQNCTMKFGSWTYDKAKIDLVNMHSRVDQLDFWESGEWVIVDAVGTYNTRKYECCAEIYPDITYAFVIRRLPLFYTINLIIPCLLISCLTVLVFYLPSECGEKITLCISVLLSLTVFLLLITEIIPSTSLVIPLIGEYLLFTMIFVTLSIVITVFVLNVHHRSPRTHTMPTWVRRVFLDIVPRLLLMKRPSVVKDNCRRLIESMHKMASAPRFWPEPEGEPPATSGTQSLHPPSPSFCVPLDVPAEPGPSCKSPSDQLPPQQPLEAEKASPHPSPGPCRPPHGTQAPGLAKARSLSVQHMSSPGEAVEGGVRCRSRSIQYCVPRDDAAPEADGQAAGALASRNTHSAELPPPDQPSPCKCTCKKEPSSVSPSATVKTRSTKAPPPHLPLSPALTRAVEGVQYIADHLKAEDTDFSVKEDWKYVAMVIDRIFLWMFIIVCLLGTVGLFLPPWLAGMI
T1 sequence (P17787 26-502): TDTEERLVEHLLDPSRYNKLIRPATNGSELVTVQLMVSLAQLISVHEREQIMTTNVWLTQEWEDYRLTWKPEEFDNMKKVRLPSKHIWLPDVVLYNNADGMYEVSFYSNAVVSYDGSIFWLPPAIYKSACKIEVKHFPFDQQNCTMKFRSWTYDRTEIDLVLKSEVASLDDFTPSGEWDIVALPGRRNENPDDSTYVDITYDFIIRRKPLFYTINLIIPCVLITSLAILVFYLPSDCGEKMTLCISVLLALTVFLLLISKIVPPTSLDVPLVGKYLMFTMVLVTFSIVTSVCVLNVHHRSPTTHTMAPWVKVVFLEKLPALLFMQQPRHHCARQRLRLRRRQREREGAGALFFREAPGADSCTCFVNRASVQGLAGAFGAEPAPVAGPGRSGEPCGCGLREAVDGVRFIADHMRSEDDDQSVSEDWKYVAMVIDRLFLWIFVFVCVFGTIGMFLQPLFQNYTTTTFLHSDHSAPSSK

Compound | Activity (allosteric effects—potentiation of fluorescence responses)
c1cncc(-c2cc(-c3cccnc3)on2)c1 [Example 1, 3,5-Di(pyridin-3-yl)isoxazole] | a (“a” denotes as activity range from 200-400%)
Fc1ccc(-c2cc(-c3cccnc3)no2)cc1F [Example 16, 5-(3,4-Difluorophenyl)-3-(pyridin-3-yl)isoxazole] | b (“b” denotes an activity range from 150-200%)
Fc1cc(-c2cc(-c3cccnc3)no2)cc(F)c1F [Example 17, 5-(3,4,5-Trifluorophenyl)-3-(pyridin-3-yl)isoxazole] | a (“a” denotes as activity range from 200-400%)
CC(=O)c1cccc(-c2cc(-c3cccnc3)no2)c1 [Example 25, 1-(3-(3-(Pyridin-3-yl)isoxazol-5-yl)phenyl)ethanone] | b (“b” denotes an activity range from 150-200%)
N#Cc1cccc(-c2cc(-c3cncc(F)c3)no2)c1 [Example 29, 3-(3-(5-Fluoropyridin-3-yl)isoxazol-5-yl)benzonitrile] | b (“b” denotes an activity range from 150-200%)
N#Cc1cc(-c2cc(-c3cccnc3)no2)ccc1F [Example 68, 2-Fluoro-5-(3-(pyridin-3-yl)isoxazol-5-yl)benzonitrile] | a (“a” denotes as activity range from 200-400%)
